Source: patent US11246931B2, “Active pharmaceutical ingredient carrier and production method of the same” (Tokuyama Corporation, priority 2017, dated 2022)

Experiment: Elution test, paddle method of the Japanese Pharmacopoeia (elution rate by HPLC)
Format: physicochemical
Conditions: 37±0.5° C., 75 rpm; for Elution rate (%) 10 min: 10 min after addition; for Elution rate (%) 60 min: 60 min after addition; for Elution rate (%) 120 min: 120 min after addition
Procedure: The elution test was performed according to the paddle method in the Japanese Pharmacopoeia the 17th edition. Specifically, the test solution was set to 900 mL of the elution test solution No. 1 of the Japanese Pharmacopoeia, the temperature was set to 37±0.5° C., the rotation speed was set to 75 rpm, the sample to be tested was loaded, and then about 1 mL was sampled at regular intervals, filtered through a syringe filter, and then subjected to HPLC analysis to determine the peak area of the active pharmaceutical ingredient. The obtained area was compared to the peak area of the active pharmaceutical ingredient at the elution rate of 100% to calculate the elution rate (%).
The elution rate is a value obtained by performing HPLC analysis with 200 mg of an IBP crystal all dissolved in 900 mL of the test solution, taking the obtained area as the elution rate of 100%, adding the active pharmaceutical ingredient or the active pharmaceutical ingredient carrier to the eluate, then performing sampling overtime, performing filtering and HPLC analysis to calculate the area, and comparing the area to the value of the elution rate of 100%.
An active pharmaceutical ingredient carrier (corresponding to 200 mg of an active pharmaceutical ingredient) (0.66 g) was weighed, and subjected to the elution test according to the paddle method in the Japanese Pharmacopoeia elution test method using the elution test solution No. 1 (pH 1.2). The temperature of the test solution was 37±0.5° C., and the rotation speed was 75 rpm. Sampling was performed at 5 minutes, 10 minutes, 15 minutes, 30 minutes, and then once every 15 minutes until 120 minutes after addition of the active pharmaceutical ingredient carrier, the obtained sample was immediately filtered using a syringe filter, and the elution rate (%) was calculated as described above from the peak area of the active pharmaceutical ingredient by high performance liquid chromatography (HPLC) with a UV detector.
The elution test of an IBP crystal was performed in the same manner as described above except that an ibuprofen active pharmaceutical ingredient (IBP crystals) was used instead of the active pharmaceutical ingredient carrier.
In the same manner as in the elution test, the elution test of the obtained active pharmaceutical ingredient carrier or the ezetimibe active ingredient (an ETB crystal) was performed. This test was performed using the elution test solution No. 1 (pH 1.2) same as that described above and the elution test solution No. 2 (pH 6.8).
In the same manner as described above, the elution test of the obtained active pharmaceutical ingredient carrier or the celecoxib active ingredient (a CXB crystal) was performed using the elution test solution No. 1 (pH 1.2) or the elution test solution No. 2 (pH 6.8).
In the same manner as described above, the elution test of the obtained active pharmaceutical ingredient carrier or the azilsartan active ingredient (an AZL crystal) was performed using the elution test solution No. 1 (pH 1.2).

[1] = elution test solution No. 1 (pH 1.2), 900 mL
[2] = elution test solution No. 2 (pH 6.8)

Row | SMILES | Elution rate (%) 10 min [1] | Elution rate (%) 60 min [1] | Elution rate (%) 120 min [1] | Elution rate (%) 10 min [2] | Elution rate (%) 60 min [2] | Elution rate (%) 120 min [2]
1 | CC(C)Cc1ccc(C(C)C(=O)O)cc1 (stereo not drawn) [IBP crystal, ibuprofen] | 1.1% | 6.0% | 10.1% |  |  | 
2 | O=C1[C@H](CC[C@H](O)c2ccc(F)cc2)[C@@H](c2ccc(O)cc2)N1c1ccc(F)cc1 [ETB crystal, ezetimibe] | 6.1% | 8.4% | 8.4% | 6.6% | 8.3% | 8.2%
3 | CCOc1nc2cccc(C(=O)O)c2n1Cc1ccc(-c2ccccc2-c2nc(=O)o[nH]2)cc1 [AZL crystal, azilsartan] | 0.58% | 4.7% | 7.4% |  |  | 
